From publication PMC6891286, “Towards the Development of an In vivo Chemical Probe for Cyclin G Associated Kinase (GAK)” (Molecules, 2019)

What was measured:
Test in all cases: KINOMEscan
Assay type in all cases: binding
Conditions in all cases: 35 at 1 µM; read-out: % inhibition
RAF1 = molecular target: T1, RAF1 (Homo sapiens, UniProt P04049)
T1 construct: purchased Eurofins DiscoverX (KINOMEscan)
Experimental: (§1) KinomeScan Assay on 35 was performed as previously described at EuroFins DiscoverX (Fremont, CA, USA).

ARK5 = molecular target: T2, ARK5 (Homo sapiens, UniProt O60285)
T2 construct: purchased Eurofins DiscoverX (KINOMEscan)
Experimental: as §1

MET = molecular target: T3, MET (Homo sapiens, UniProt P08581)
T3 construct: purchased Eurofins DiscoverX (KINOMEscan)
Experimental: as §1

NLK = molecular target: T4, NLK (Homo sapiens, UniProt Q9UBE8)
T4 construct: purchased Eurofins DiscoverX (KINOMEscan)
Experimental: as §1

EIF2AK1 = molecular target: T5, EIF2AK1 (Homo sapiens, UniProt Q9BQI3)
T5 construct: purchased Eurofins DiscoverX (KINOMEscan)
Experimental: as §1

MARK2 = molecular target: T6, MARK2 (Homo sapiens, UniProt Q7KZI7)
T6 construct: purchased Eurofins DiscoverX (KINOMEscan)
Experimental: as §1

MLK1 = molecular target: T7, MLK1 (Homo sapiens, UniProt P80192)
T7 construct: purchased Eurofins DiscoverX (KINOMEscan)
Experimental: as §1

ADCK4 = molecular target: T8, ADCK4 (Homo sapiens, UniProt Q96D53)
T8 construct: purchased Eurofins DiscoverX (KINOMEscan)
Experimental: as §1

DCAMKL1 = molecular target: T9, DCAMKL1 (Homo sapiens, UniProt O15075)
T9 construct: purchased Eurofins DiscoverX (KINOMEscan)
Experimental: as §1

CSK = molecular target: T10, CSK (Homo sapiens, UniProt P41240)
T10 construct: purchased Eurofins DiscoverX (KINOMEscan)
Experimental: as §1

ALK(C1156Y) = molecular target: T11, ALK(C1156Y) (Homo sapiens, UniProt Q9UM73, C1156Y)
T11 construct: purchased Eurofins DiscoverX (KINOMEscan)
Experimental: as §1

CAMKK2 = molecular target: T12, CAMKK2 (Homo sapiens, UniProt Q96RR4)
T12 construct: purchased Eurofins DiscoverX (KINOMEscan)
Experimental: as §1

TNNI3K = molecular target: T13, TNNI3K (Homo sapiens, UniProt Q59H18)
T13 construct: purchased Eurofins DiscoverX (KINOMEscan)
Experimental: as §1

PIP5K2B = molecular target: T14, PIP5K2B (Homo sapiens, UniProt P78356)
T14 construct: purchased Eurofins DiscoverX (KINOMEscan)
Experimental: as §1

PLK4 = molecular target: T15, PLK4 (Homo sapiens, UniProt O00444)
T15 construct: purchased Eurofins DiscoverX (KINOMEscan)
Experimental: as §1

NEK5 = molecular target: T16, NEK5 (Homo sapiens, UniProt Q6P3R8)
T16 construct: purchased Eurofins DiscoverX (KINOMEscan)
Experimental: as §1

GRK1 = molecular target: T17, GRK1 (Homo sapiens, UniProt Q15835)
T17 construct: purchased Eurofins DiscoverX (KINOMEscan)
Experimental: as §1

MST1 = molecular target: T18, MST1 (Homo sapiens, UniProt Q13043)
T18 construct: purchased Eurofins DiscoverX (KINOMEscan)
Experimental: as §1

LYN = molecular target: T19, LYN (Homo sapiens, UniProt P07948)
T19 construct: purchased Eurofins DiscoverX (KINOMEscan)
Experimental: as §1

EPHA3 = molecular target: T20, EPHA3 (Homo sapiens, UniProt P29320)
T20 construct: purchased Eurofins DiscoverX (KINOMEscan)
Experimental: as §1

RIPK4 = molecular target: T21, RIPK4 (Homo sapiens, UniProt P57078)
T21 construct: purchased Eurofins DiscoverX (KINOMEscan)
Experimental: as §1

[1] = molecular target: T22, TYK2(JH2domain-pseudokinase) (Homo sapiens, UniProt P29597)
T22 construct: TYK2(JH2domain-pseudokinase); purchased Eurofins DiscoverX (KINOMEscan)
Experimental: as §1

[2] = molecular target: T23, EGFR(L747-S752del, P753S) (Homo sapiens, UniProt P00533, DEL747-752/P753S)
T23 construct: purchased Eurofins DiscoverX (KINOMEscan)
Experimental: as §1

PIK3CA(H1047L) = molecular target: T24, PIK3CA(H1047L) (Homo sapiens, UniProt P42336, H1047L)
T24 construct: purchased Eurofins DiscoverX (KINOMEscan)
Experimental: as §1

ABL1-nonphosphorylated = molecular target: T25, ABL1-nonphosphorylated (Homo sapiens, UniProt P00519)
T25 construct: purchased Eurofins DiscoverX (KINOMEscan)
Experimental: as §1

MELK = molecular target: T26, MELK (Homo sapiens, UniProt Q14680)
T26 construct: purchased Eurofins DiscoverX (KINOMEscan)
Experimental: as §1

STK35 = molecular target: T27, STK35 (Homo sapiens, UniProt Q8TDR2)
T27 construct: purchased Eurofins DiscoverX (KINOMEscan)
Experimental: as §1

LZK = molecular target: T28, LZK (Homo sapiens, UniProt O43283)
T28 construct: purchased Eurofins DiscoverX (KINOMEscan)
Experimental: as §1

PRP4 = molecular target: T29, PRP4 (Homo sapiens, UniProt Q13523)
T29 construct: purchased Eurofins DiscoverX (KINOMEscan)
Experimental: as §1

MYO3A = molecular target: T30, MYO3A (Homo sapiens, UniProt Q8NEV4)
T30 construct: purchased Eurofins DiscoverX (KINOMEscan)
Experimental: as §1

DAPK3 = molecular target: T31, DAPK3 (Homo sapiens, UniProt O43293)
T31 construct: purchased Eurofins DiscoverX (KINOMEscan)
Experimental: as §1

MYLK2 = molecular target: T32, MYLK2 (Homo sapiens, UniProt Q9H1R3)
T32 construct: purchased Eurofins DiscoverX (KINOMEscan)
Experimental: as §1

IRAK1 = molecular target: T33, IRAK1 (Homo sapiens, UniProt P51617)
T33 construct: purchased Eurofins DiscoverX (KINOMEscan)
Experimental: as §1

PIK3C2G = molecular target: T34, PIK3C2G (Homo sapiens, UniProt O75747)
T34 construct: purchased Eurofins DiscoverX (KINOMEscan)
Experimental: as §1

ANKK1 = molecular target: T35, ANKK1 (Homo sapiens, UniProt Q8NFD2)
T35 construct: purchased Eurofins DiscoverX (KINOMEscan)
Experimental: as §1

ULK1 = molecular target: T36, ULK1 (Homo sapiens, UniProt O75385)
T36 construct: purchased Eurofins DiscoverX (KINOMEscan)
Experimental: as §1

GRK7 = molecular target: T37, GRK7 (Homo sapiens, UniProt Q8WTQ7)
T37 construct: purchased Eurofins DiscoverX (KINOMEscan)
Experimental: as §1

PAK2 = molecular target: T38, PAK2 (Homo sapiens, UniProt Q13177)
T38 construct: purchased Eurofins DiscoverX (KINOMEscan)
Experimental: as §1

MAPKAPK2 = molecular target: T39, MAPKAPK2 (Homo sapiens, UniProt P49137)
T39 construct: purchased Eurofins DiscoverX (KINOMEscan)
Experimental: as §1

TEC = molecular target: T40, TEC (Homo sapiens, UniProt P42680)
T40 construct: purchased Eurofins DiscoverX (KINOMEscan)
Experimental: as §1

FLT3-autoinhibited = molecular target: T41, FLT3-autoinhibited (Homo sapiens, UniProt P36888)
T41 construct: purchased Eurofins DiscoverX (KINOMEscan)
Experimental: as §1

HIPK3 = molecular target: T42, HIPK3 (Homo sapiens, UniProt Q9H422)
T42 construct: purchased Eurofins DiscoverX (KINOMEscan)
Experimental: as §1

PDPK1 = molecular target: T43, PDPK1 (Homo sapiens, UniProt O15530)
T43 construct: purchased Eurofins DiscoverX (KINOMEscan)
Experimental: as §1

T13 sequence (Q59H18 whole entry): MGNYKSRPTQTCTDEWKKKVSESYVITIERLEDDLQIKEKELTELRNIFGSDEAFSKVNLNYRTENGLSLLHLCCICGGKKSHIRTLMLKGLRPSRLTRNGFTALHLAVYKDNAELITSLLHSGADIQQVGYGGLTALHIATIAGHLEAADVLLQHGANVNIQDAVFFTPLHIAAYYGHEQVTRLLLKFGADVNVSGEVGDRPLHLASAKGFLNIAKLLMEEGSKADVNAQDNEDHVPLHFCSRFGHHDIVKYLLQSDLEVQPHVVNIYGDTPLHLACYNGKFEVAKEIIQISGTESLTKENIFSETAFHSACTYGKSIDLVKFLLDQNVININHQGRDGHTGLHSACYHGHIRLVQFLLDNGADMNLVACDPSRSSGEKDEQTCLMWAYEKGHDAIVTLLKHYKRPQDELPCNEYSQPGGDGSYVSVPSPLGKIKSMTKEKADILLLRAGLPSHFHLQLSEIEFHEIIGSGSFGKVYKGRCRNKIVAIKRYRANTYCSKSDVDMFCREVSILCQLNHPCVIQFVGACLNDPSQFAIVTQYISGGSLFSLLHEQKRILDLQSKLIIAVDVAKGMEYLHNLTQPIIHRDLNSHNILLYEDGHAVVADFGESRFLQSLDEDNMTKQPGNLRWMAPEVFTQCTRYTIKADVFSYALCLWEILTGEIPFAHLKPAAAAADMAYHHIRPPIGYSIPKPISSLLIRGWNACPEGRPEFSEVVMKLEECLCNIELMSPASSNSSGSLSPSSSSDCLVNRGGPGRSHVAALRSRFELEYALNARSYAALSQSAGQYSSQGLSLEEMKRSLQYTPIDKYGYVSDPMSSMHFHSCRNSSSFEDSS
T21 sequence (P57078 whole entry): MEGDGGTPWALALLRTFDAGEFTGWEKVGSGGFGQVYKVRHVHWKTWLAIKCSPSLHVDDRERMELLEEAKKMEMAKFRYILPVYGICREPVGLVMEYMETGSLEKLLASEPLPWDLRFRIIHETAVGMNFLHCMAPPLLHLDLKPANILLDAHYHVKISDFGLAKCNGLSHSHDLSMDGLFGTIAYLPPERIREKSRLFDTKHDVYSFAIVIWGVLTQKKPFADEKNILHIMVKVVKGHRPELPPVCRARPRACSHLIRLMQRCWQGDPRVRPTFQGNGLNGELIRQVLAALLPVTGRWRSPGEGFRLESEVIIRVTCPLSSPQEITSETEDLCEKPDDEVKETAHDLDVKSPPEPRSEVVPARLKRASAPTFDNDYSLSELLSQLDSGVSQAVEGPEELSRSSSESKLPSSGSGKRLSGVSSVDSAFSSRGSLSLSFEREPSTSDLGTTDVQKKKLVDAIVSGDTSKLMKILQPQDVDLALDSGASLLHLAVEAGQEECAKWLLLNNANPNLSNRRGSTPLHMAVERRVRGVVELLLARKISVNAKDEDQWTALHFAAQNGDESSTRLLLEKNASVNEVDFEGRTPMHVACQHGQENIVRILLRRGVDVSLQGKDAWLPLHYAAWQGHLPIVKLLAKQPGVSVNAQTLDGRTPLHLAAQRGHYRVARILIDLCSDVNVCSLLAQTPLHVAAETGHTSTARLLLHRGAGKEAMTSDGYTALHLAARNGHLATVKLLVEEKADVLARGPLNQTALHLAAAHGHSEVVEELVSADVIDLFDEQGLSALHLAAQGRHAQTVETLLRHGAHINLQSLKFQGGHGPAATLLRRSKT
T27 sequence (Q8TDR2 whole entry): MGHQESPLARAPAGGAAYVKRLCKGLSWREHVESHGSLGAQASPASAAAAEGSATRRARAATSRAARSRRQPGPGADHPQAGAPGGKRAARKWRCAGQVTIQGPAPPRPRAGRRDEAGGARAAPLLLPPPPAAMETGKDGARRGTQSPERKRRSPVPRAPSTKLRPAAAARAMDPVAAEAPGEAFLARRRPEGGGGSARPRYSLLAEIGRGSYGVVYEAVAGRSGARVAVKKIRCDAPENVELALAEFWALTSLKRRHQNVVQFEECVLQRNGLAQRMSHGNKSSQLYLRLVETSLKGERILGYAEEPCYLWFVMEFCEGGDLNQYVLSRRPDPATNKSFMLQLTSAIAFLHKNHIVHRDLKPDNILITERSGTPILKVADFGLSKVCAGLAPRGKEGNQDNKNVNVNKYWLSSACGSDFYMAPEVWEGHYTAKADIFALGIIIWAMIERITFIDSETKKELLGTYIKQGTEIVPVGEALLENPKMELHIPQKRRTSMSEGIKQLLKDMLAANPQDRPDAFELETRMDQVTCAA
T4 sequence (Q9UBE8 whole entry): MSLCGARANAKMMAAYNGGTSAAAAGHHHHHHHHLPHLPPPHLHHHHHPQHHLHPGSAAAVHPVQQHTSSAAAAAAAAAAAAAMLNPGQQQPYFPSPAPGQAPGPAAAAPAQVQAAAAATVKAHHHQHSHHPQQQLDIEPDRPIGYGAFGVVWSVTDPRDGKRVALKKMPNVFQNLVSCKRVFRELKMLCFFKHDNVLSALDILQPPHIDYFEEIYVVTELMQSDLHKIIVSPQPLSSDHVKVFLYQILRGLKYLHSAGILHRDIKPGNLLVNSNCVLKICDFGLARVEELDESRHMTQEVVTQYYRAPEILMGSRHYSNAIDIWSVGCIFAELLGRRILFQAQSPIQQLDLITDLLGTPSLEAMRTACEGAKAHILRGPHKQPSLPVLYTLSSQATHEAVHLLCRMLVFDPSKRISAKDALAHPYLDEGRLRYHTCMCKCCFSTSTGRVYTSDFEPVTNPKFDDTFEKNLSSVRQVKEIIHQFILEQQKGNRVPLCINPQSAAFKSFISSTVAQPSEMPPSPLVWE
T1 sequence (P04049 whole entry): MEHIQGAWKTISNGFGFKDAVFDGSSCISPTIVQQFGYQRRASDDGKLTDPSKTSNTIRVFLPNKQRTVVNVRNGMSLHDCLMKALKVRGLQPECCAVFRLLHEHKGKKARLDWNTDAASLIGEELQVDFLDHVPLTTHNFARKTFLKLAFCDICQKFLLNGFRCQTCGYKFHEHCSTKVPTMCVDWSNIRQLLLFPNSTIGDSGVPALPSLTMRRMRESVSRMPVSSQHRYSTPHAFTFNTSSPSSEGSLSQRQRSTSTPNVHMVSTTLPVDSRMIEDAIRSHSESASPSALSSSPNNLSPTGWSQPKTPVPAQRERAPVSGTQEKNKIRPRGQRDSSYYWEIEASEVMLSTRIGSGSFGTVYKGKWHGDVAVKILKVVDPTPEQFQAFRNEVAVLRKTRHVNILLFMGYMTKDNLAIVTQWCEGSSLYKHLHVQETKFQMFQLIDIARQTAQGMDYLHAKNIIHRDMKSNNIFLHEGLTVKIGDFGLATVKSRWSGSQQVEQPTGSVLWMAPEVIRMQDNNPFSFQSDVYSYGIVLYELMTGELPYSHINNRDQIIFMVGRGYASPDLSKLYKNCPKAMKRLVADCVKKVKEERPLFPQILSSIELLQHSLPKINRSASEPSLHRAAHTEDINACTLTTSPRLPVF
T8 sequence (Q96D53 whole entry): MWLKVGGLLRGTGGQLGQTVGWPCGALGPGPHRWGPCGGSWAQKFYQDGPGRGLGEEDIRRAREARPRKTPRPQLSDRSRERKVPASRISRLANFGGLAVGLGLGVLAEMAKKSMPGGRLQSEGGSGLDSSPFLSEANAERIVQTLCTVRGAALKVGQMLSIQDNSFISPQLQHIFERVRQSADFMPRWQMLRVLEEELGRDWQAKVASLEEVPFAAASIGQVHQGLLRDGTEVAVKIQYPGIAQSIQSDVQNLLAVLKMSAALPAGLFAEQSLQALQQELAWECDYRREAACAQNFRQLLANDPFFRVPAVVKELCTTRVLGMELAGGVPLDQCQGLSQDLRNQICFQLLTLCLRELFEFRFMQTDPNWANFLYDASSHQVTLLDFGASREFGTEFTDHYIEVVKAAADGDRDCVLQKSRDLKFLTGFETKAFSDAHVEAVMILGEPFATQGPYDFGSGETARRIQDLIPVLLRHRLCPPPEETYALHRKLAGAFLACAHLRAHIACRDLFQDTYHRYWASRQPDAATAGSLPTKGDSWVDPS
T25 sequence (P00519 whole entry): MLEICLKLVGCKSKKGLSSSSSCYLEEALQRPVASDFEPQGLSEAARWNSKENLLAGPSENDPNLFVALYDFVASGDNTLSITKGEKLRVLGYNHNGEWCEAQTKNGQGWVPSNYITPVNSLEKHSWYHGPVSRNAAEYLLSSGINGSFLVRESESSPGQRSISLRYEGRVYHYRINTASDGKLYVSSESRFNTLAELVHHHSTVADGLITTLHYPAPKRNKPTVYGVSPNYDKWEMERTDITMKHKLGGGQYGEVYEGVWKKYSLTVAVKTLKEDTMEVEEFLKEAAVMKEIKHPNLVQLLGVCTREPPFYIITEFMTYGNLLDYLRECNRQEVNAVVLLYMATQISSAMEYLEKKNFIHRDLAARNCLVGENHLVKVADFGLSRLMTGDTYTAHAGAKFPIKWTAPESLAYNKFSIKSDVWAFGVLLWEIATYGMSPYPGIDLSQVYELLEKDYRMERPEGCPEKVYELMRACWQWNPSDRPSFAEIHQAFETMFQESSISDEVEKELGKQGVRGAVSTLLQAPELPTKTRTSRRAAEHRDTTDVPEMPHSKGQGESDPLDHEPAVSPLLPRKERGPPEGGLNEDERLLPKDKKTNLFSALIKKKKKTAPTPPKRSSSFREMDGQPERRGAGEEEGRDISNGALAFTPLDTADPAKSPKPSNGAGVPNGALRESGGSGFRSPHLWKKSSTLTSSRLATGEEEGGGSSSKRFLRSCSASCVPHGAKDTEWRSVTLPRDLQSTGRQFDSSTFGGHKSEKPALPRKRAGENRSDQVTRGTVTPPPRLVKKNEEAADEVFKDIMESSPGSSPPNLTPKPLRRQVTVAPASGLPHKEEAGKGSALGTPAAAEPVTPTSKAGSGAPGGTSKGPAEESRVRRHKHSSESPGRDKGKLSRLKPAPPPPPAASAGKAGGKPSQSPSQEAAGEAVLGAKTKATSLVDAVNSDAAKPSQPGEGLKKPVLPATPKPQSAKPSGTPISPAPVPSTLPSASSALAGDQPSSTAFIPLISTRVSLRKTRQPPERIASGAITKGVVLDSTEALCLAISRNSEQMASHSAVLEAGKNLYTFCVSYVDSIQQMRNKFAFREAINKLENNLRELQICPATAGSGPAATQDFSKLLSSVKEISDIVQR

In the case of Brc1ccc2nccc(Nc3ccc4cn[nH]c4c3)c2c1 [Compound 35, 6-Bromo-N-(1H-indazol-6-yl)quinolin-4-amine], the activity at 1 µM (RAF1) is reported as 100%, the activity at 1 µM (ARK5) is reported as 100% and the activity at 1 µM (MET) is reported as 100%. It also gave an activity at 1 µM (NLK) of 100%, an activity at 1 µM (EIF2AK1) of 92% and an activity at 1 µM (MARK2) of 100%. For the same compound, the activity at 1 µM (MLK1) was 100%, the activity at 1 µM (ADCK4) was 100% and the activity at 1 µM (DCAMKL1) was 99%. For the same compound, the activity at 1 µM (CSK) was 100%, the activity at 1 µM (ALK(C1156Y)) was 64% and the activity at 1 µM (CAMKK2) was 100%. For the same compound, the activity at 1 µM (TNNI3K) was 100%, the activity at 1 µM (PIP5K2B) was 100% and the activity at 1 µM (PLK4) was 100%. It also gave an activity at 1 µM (NEK5) of 93%, an activity at 1 µM (GRK1) of 68% and an activity at 1 µM (MST1) of 100%. For the same compound, the activity at 1 µM (LYN) was 100%, the activity at 1 µM (EPHA3) was 100% and the activity at 1 µM (RIPK4) was 100%. For the same compound, the activity at 1 µM [1] was 100%, the activity at 1 µM [2] was 66% and the activity at 1 µM (PIK3CA(H1047L)) was 87%. It also gave an activity at 1 µM (ABL1-nonphosphorylated) of 88%, an activity at 1 µM (MELK) of 100% and an activity at 1 µM (STK35) of 100%. For the same compound, the activity at 1 µM (LZK) was 100%, the activity at 1 µM (PRP4) was 79% and the activity at 1 µM (MYO3A) was 100%. The activity at 1 µM (DAPK3) was 88%, the activity at 1 µM (MYLK2) was 100% and the activity at 1 µM (IRAK1) was 100%. It also gave an activity at 1 µM (PIK3C2G) of 100%, an activity at 1 µM (ANKK1) of 100% and an activity at 1 µM (ULK1) of 91%. It also gave an activity at 1 µM (GRK7) of 100%, an activity at 1 µM (PAK2) of 85% and an activity at 1 µM (MAPKAPK2) of 100%. It also gave an activity at 1 µM (TEC) of 100%, an activity at 1 µM (FLT3-autoinhibited) of 100% and an activity at 1 µM (HIPK3) of 87%. For the same compound, the activity at 1 µM (PDPK1) was 100%.
